The values that follow come from PubChem BioAssay AID248 (DTP/NCI, 2004).

The test concerns L1210 leukemia ip in BDF1 mice, survival T/C. Kind of test: NCI In Vivo Anticancer Drug Screen. Data for tumor model L1210 Leukemia (intraperitoneal) in B6D2F1 (BDF1) mice. The settings on record: higher = longer survival. A digest of the protocol:
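Tumor cells were implanted, animals were treated, and survival was followed. The result divides the treated measurement by the vehicle-control measurement.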

Setting [1] is: endpoint: mean survival time, dose: 100.0 mg/kg/injection, schedule: Q04DX003 (ip), vehicle: saline with Tween-80.
The mark [2] stands for this setting: endpoint: mean survival time, dose: 200.0 mg/kg/injection, schedule: Q04DX003 (ip), vehicle: saline with Tween-80.
[3] abbreviates: endpoint: mean survival time, dose: 100.0 mg/kg/injection, schedule: Q01DX009 (ip), vehicle: Klucel (hydroxypropylcellulose) (HPC).
[4] abbreviates: endpoint: mean survival time, dose: 100.0 mg/kg/injection, schedule: Q01DX009 (ip), vehicle: saline.
Where [5] appears, read: endpoint: mean survival time, dose: 200.0 mg/kg/injection, schedule: Q01DX009 (ip), vehicle: saline.

Several values for one entry are separate records, joined by “and”; a condition that tells them apart may be missing. Equal values may be shown once. Inconclusive results and toxic doses are left out. Numbered stars: 1 amine (or outer) side, 2 acyl side, 3 side chain; on linkers, the order of the positions; unused ones are H or OH. Bridge positions count the residues as written; N and C are the ends. Square brackets hold non-standard residues; d marks the D form. Peptide text beside a SMILES is read from it. I, II: the chains in the order shown. Actinocin(1to9) = Cc1c2oc3c(C)ccc(C(=O)[*:2])c3nc-2c(C(=O)[*:1])c(N)c1=O; NMeV = CN[CH](C(=O)O)C(C)C; Sar = CNCC(=O)O

With `CCC(C)C1NC(=O)C(NC(=O)c2c3nc4c(C(=O)NC5C(=O)NC(C(C)C)C(=O)N6CCCC6C(=O)N(C)CC(=O)N(C)C(C(C)C)C(=O)OC5C)ccc(C)c4oc-3c(C)c(=O)c2N)C(C)OC(=O)C(C(C)C)N(C)C(=O)CN(C)C(=O)C2CCCN2C1=O` (configuration not stated) (I: TIP[Sar][NMeV] / II: TVP[Sar][NMeV]; ester I:1-I:C, II:1-II:C; linker I:N-II:N via Actinocin(1to9); configuration not given here), the T/C by setting is: (endpoint: mean survival time, dose: 0.2 mg/kg/injection, schedule: Q01DX009 (ip), vehicle: saline) 92 % of control; (endpoint: mean survival time, dose: 3.1 micrograms/kg/injection, schedule: Q01DX001 (ip), vehicle: saline) 97 % of control; (endpoint: mean survival time, dose: 5.5 micrograms/kg/injection, schedule: Q01DX009 (ip), vehicle: acetone) 112 % of control; (endpoint: mean survival time, dose: 6.3 micrograms/kg/injection, schedule: Q01DX001 (ip), vehicle: saline) 98 % of control; (endpoint: mean survival time, dose: 8.2 micrograms/kg/injection, schedule: Q01DX009 (ip), vehicle: acetone) 123 % of control; (endpoint: mean survival time, dose: 12.5 micrograms/kg/injection, schedule: Q01DX001 (ip), vehicle: saline) 100 % of control. For the same compound, the T/C was 107 % of control (endpoint: mean survival time, dose: 25.0 micrograms/kg/injection, schedule: Q01DX001 (ip), vehicle: saline); 159 % of control (endpoint: mean survival time, dose: 25.0 micrograms/kg/injection, schedule: Q01DX009 (ip), vehicle: saline); 114 % of control (endpoint: mean survival time, dose: 50.0 micrograms/kg/injection, schedule: Q01DX001 (ip), vehicle: saline); 111 % of control (endpoint: mean survival time, dose: 100.0 micrograms/kg/injection, schedule: Q01DX001 (ip), vehicle: saline); 117 % of control (endpoint: mean survival time, dose: 200.0 micrograms/kg/injection, schedule: Q01DX001 (ip), vehicle: saline); 116 % of control (endpoint: mean survival time, dose: 400.0 micrograms/kg/injection, schedule: Q01DX001 (ip), vehicle: saline). Moreover, the T/C (endpoint: median survival time, dose: 12.5 micrograms/kg/injection, schedule: Q01DX009 (ip), vehicle: water) is 121 % of control; the T/C (endpoint: median survival time, dose: 25.0 micrograms/kg/injection, schedule: Q01DX009 (ip), vehicle: water) was 115 % of control; the T/C (endpoint: median survival time, dose: 100.0 micrograms/kg/injection, schedule: Q01DX009 (ip), vehicle: water) is 157 % of control; the T/C (endpoint: median survival time, dose: 200.0 micrograms/kg/injection, schedule: Q01DX001 (ip), vehicle: water) was 115 % of control; the T/C (endpoint: median survival time, dose: 400.0 micrograms/kg/injection, schedule: Q01DX001 (ip), vehicle: water) is 123 % of control; the T/C (endpoint: median survival time, dose: 600.0 micrograms/kg/injection, schedule: Q04DX003 (ip), vehicle: water) is 150 % of control.

Take `CCCC(=O)c1cc(O)c(O)cc1O`: the T/C by setting is: (endpoint: mean survival time, dose: 50.0 mg/kg/injection, schedule: Q01DX009 (ip), vehicle: saline with Tween-80) 96 % of control; under setting [1], 95 % of control; under setting [2], 105 % of control.

For `CCOC(=O)c1cnc(SC)nc1C(=O)OCC`, the T/C is, setting by setting: (endpoint: mean survival time, dose: 50.0 mg/kg/injection, schedule: Q04DX003 (ip), vehicle: Klucel (hydroxypropylcellulose) (HPC)) 102 % of control; (endpoint: mean survival time, dose: 100.0 mg/kg/injection, schedule: Q04DX003 (ip), vehicle: Klucel (hydroxypropylcellulose) (HPC)) 94 % of control; (endpoint: mean survival time, dose: 200.0 mg/kg/injection, schedule: Q04DX003 (ip), vehicle: Klucel (hydroxypropylcellulose) (HPC)) 102 % of control.

For `O=C(C(Cl)(Cl)CO)C(Cl)(Cl)CO`, the T/C (endpoint: mean survival time, dose: 100.0 mg/kg/injection, schedule: Q01DX001 (ip), vehicle: saline) was 91 % of control; the T/C (endpoint: mean survival time, dose: 200.0 mg/kg/injection, schedule: Q01DX001 (ip), vehicle: saline) was 94 % of control; the T/C (endpoint: mean survival time, dose: 400.0 mg/kg/injection, schedule: Q01DX001 (ip), vehicle: saline) was 92 % of control.

Take `COc1c(NC(=O)c2cccc(C(=O)Nc3cccc([N+](=O)[O-])c3OC)c2)cccc1[N+](=O)[O-]`: the T/C by setting is: under setting [3], 96 % of control; (endpoint: mean survival time, dose: 200.0 mg/kg/injection, schedule: Q01DX009 (ip), vehicle: Klucel (hydroxypropylcellulose) (HPC)) 89 % of control; (endpoint: mean survival time, dose: 400.0 mg/kg/injection, schedule: Q01DX009 (ip), vehicle: Klucel (hydroxypropylcellulose) (HPC)) 92 % of control.

For `NC(N)=Nc1ccc(C(=O)Nc2ccc([N+](=O)[O-])cc2)cc1`, the T/C reads like this: (endpoint: mean survival time, dose: 50.0 mg/kg/injection, schedule: Q01DX009 (ip), vehicle: saline) 101 % of control; under setting [4], 94 % of control; (endpoint: mean survival time, dose: 100.0 mg/kg/injection, schedule: Q04DX003 (ip), vehicle: saline) 95 % of control; under setting [5], 90 % of control; (endpoint: mean survival time, dose: 200.0 mg/kg/injection, schedule: Q04DX003 (ip), vehicle: saline) 101 % of control; (endpoint: mean survival time, dose: 400.0 mg/kg/injection, schedule: Q04DX003 (ip), vehicle: saline) 97 % of control.

Turning to `COC1OC(CO)C2OC(C)(C)OC2C1O` (configuration not stated), the T/C runs as follows: (endpoint: mean survival time, dose: 100.0 mg/kg/injection, schedule: Q04DX002 (ip), vehicle: saline) 93 % of control; (endpoint: mean survival time, dose: 200.0 mg/kg/injection, schedule: Q04DX002 (ip), vehicle: saline) 101 % of control; (endpoint: mean survival time, dose: 400.0 mg/kg/injection, schedule: Q04DX002 (ip), vehicle: saline) 104 % of control.

On to `COc1nncc(-c2cnnc(OC)n2)n1`, for which the T/C (endpoint: mean survival time, dose: 12.5 mg/kg/injection, schedule: Q04DX002 (ip), vehicle: Klucel (hydroxypropylcellulose) (HPC)) is 112 % of control; the T/C (endpoint: mean survival time, dose: 25.0 mg/kg/injection, schedule: Q04DX002 (ip), vehicle: Klucel (hydroxypropylcellulose) (HPC)) was 105 % of control; the T/C (endpoint: mean survival time, dose: 50.0 mg/kg/injection, schedule: Q04DX002 (ip), vehicle: Klucel (hydroxypropylcellulose) (HPC)) was 109 % of control.

Turning to `CC/C(=N/OC(=O)N(CC)CC)c1ccccc1`, the T/C (endpoint: mean survival time, dose: 100.0 mg/kg/injection, schedule: Q01DX001 (ip), vehicle: other) was 96 % of control; the T/C (endpoint: mean survival time, dose: 200.0 mg/kg/injection, schedule: Q01DX001 (ip), vehicle: other) was 91 % of control; the T/C (endpoint: mean survival time, dose: 400.0 mg/kg/injection, schedule: Q01DX001 (ip), vehicle: other) is 93 % of control.

In the case of `COc1ccc(-c2oc3cc4c(cc3c2-c2ccc(OC)cc2)CCCC4)cc1`, the T/C under setting [1] is 98 % of control; the T/C under setting [2] was 98 % of control; the T/C (endpoint: mean survival time, dose: 400.0 mg/kg/injection, schedule: Q04DX003 (ip), vehicle: saline with Tween-80) was 102 % of control.

As for `CC(C)C1CCC(C)C(C(O)(C(F)(F)F)C(F)(F)F)C1=O` (configuration not stated), the T/C under setting [4] is 114 % of control; the T/C under setting [5] is 97 % of control; the T/C (endpoint: mean survival time, dose: 400.0 mg/kg/injection, schedule: Q01DX009 (ip), vehicle: saline) is 97 % of control.

With `CCc1ccc(N=C/C=C/c2ccccc2)cc1`, the T/C runs as follows: (endpoint: mean survival time, dose: 25.0 mg/kg/injection, schedule: Q01DX009 (ip), vehicle: other) 98 % of control; (endpoint: mean survival time, dose: 50.0 mg/kg/injection, schedule: Q01DX009 (ip), vehicle: other) 98 % of control; (endpoint: mean survival time, dose: 100.0 mg/kg/injection, schedule: Q01DX009 (ip), vehicle: other) 98 % of control and 110 % of control.

For `O=C(c1cccnc1)C1Cc2ccccc2C1=O` (configuration not stated), the T/C is 100 % of control (endpoint: mean survival time, dose: 100.0 mg/kg/injection, schedule: Q04DX003 (ip), vehicle: saline sonified); 96 % of control (endpoint: mean survival time, dose: 200.0 mg/kg/injection, schedule: Q04DX003 (ip), vehicle: saline sonified); 91 % of control (endpoint: mean survival time, dose: 400.0 mg/kg/injection, schedule: Q04DX003 (ip), vehicle: saline sonified).

On to `Nc1nc(N)nc(Nc2ccc([As]=O)cc2)n1` (configuration not stated), for which the T/C is 112 % of control (endpoint: mean survival time, dose: 25.0 mg/kg/injection, schedule: Q01DX009 (ip), vehicle: Klucel (hydroxypropylcellulose) (HPC)); 117 % of control (endpoint: mean survival time, dose: 50.0 mg/kg/injection, schedule: Q01DX009 (ip), vehicle: Klucel (hydroxypropylcellulose) (HPC)); 102 % of control under setting [3].

Take `N#CC1(NC(Cc2ccccc2)c2ccccc2)CCCCCCCCCCC1` (configuration not stated): the T/C is, setting by setting: (endpoint: mean survival time, dose: 100.0 mg/kg/injection, schedule: Q04DX002 (ip), vehicle: saline with Tween-80) 101 % of control; (endpoint: mean survival time, dose: 200.0 mg/kg/injection, schedule: Q04DX002 (ip), vehicle: saline with Tween-80) 94 % of control; (endpoint: mean survival time, dose: 400.0 mg/kg/injection, schedule: Q04DX002 (ip), vehicle: saline with Tween-80) 97 % of control.

Turning to `O=[N+]([O-])c1ccc(N/N=C\C2CC=C3c4ccccc4CCC3C2/C=N\Nc2ccc([N+](=O)[O-])cc2[N+](=O)[O-])c([N+](=O)[O-])c1` (configuration not stated), the T/C (endpoint: mean survival time, dose: 50.0 mg/kg/injection, schedule: Q01DX001 (ip), vehicle: carboxymethylcellulose (CMC)) is 89 % of control; the T/C (endpoint: mean survival time, dose: 100.0 mg/kg/injection, schedule: Q01DX001 (ip), vehicle: carboxymethylcellulose (CMC)) is 93 % of control; the T/C (endpoint: mean survival time, dose: 200.0 mg/kg/injection, schedule: Q01DX001 (ip), vehicle: carboxymethylcellulose (CMC)) is 103 % of control; the T/C (endpoint: mean survival time, dose: 400.0 mg/kg/injection, schedule: Q01DX001 (ip), vehicle: carboxymethylcellulose (CMC)) is 108 % of control.
